Earlier results as cited in US20240344094A1, “METHODS AND COMPOSITIONS USEFUL FOR THE PRODUCTION OF OLEFINIC ESTER” (THE REGENTS OF THE UNIVERSITY OF CALIFORNIA, priority 2021, published 2024).

SMILES | solubility limit in water (water) [µg/mL] | solubility in water (20° in water)
CC(=O)OCCC(C)C [isoamyl acetate] | ~10000 | –
C=C(C)CCO [Isoprenol, 3-methyl-3-buten-1-ol] | – | about 90 g/L
